Entries after “also recorded” stand apart in the source; their conditions may differ.
What was measured:
human sense of taste [1] = assay: Sugar-like taste quality enhancement of Stevia sweeteners by steviol glycoside additives, taste test by trained individual; type: in vivo; conditions: for Taste change of Stevia Sweetener REBA (303 ppm) with Steviol Glycoside Additive / Taste change of Stevia Sweetener JSS (380 ppm) with Steviol Glycoside Additive / Taste change of Stevia Sweetener REBD (303 ppm) with Steviol Glycoside Additive: additive at or below its sweetness recognition threshold concentration, 5% sucrose equivalence, water, room temperature; for Taste change of Stevia Sweetener REBA (303 ppm) with Steviol Glycoside Additive: 97% pure rebaudioside A 303 ppm; for Taste change of Stevia Sweetener REBD (303 ppm) with Steviol Glycoside Additive: rebaudioside D 303 ppm; for sugar-like taste quality enhancement effect: mostly in 5% SE rebaudioside A, compared with compound 1;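 for Taste change of Stevia Sweetener JSS (380 ppm) with Steviol Glycoside Additive: code −B means less bitterness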
Description: A steviol glycoside is added in an amount at or below sweetness recognition threshold concentration to a solution of water and a Stevia sweetener. The solution is maintained at room temperature. Each sample is taste tested by a trained individual, as described in Example 1, in duplicate. Preferably no more than ten steviol glycosides are tested per day to avoid taste fatigue. Each sample was taken at least 1.5 hours following eating or drinking
The Stevia sweeteners used in this study were 97% pure rebaudioside A, JSS, and rebaudioside D.
The steviol glycosides were used in at or below sweetness recognition threshold concentrations. […]

human sense of taste [2] = assay: Determination of sweetness recognition threshold concentration by trained taste tester; type: in vivo; conditions: in water at room temperature; for minimal effective concentration: Homo sapiens, read-out: Sweetness recognition threshold Level
Description: The term “sweetness recognition threshold concentration,” as generally used herein, is the lowest known concentration of a sweet compound that is perceivable by the human sense of taste. The sweetness recognition threshold level is specific for a particular compound, and varies based on temperature, matrix, ingredients and/or flavor system. The sweetness recognition threshold concentrations measurements and 5% sucrose equivalence measurements described herein were determined in water at room temperature.
A sip (approximately 2-5 mL) of control sample, including but not limited to water, was tasted and swallowed by a trained taste tester. After allowing a 15-25 second interval to pass, a second sip of the control is tasted and swallowed. The taste properties of the control are determined and recorded by the trained taste tester. An unknown sample is then tasted and swallowed in the same manner, allowing a 15-25 second interval between the two sips. Preferably no more than ten additives are tested per day to avoid taste fatigue. Each sample was taken at least 1.5 hours following eating or drinking The sweetness recognition thresholds concentration of 21 steviol glycosides were determined in this manner, and are shown in Table 1.

[3] = additive at 500 ppm, all three control 5% SE Stevia sweeteners

| SMILES | Taste change of Stevia Sweetener REBA (303 ppm) with Steviol Glycoside Additive (human sense of taste [1]) | Taste change of Stevia Sweetener JSS (380 ppm) with Steviol Glycoside Additive (human sense of taste [1]) | Taste change of Stevia Sweetener REBD (303 ppm) with Steviol Glycoside Additive (human sense of taste [1]) | minimal effective concentration (human sense of taste [2]) | Sweetness recognition threshold Level (human sense of taste [2]) | further results |
| --- | --- | --- | --- | --- | --- | --- |
| C[C@@]12CCC[C@@](C)(C(=O)O)[C@H]1CC[C@@]13C[C@@](OC4OC(CO)C(O)C(OC5OC(CO)C(O)C(O)C5O)C4OC4OC(CO)C(O)C(O)C4O)(CC[C@H]12)[C@](C)(O)C3 (some centres unmarked) [Compound 1] | ++, ASLC,; also recorded: +S, −B | ++, ASLC,; also recorded: +S, −B | ++, ASLC,; also recorded: +S, −B | 500 µg/mL |  | bitterness, sweet lingering, off-taste note (human sense of taste [1]; [3]): no bitterness, sweet lingering or off-taste note; slightly sweeter profile (increase in sucrose equivalence) (human sense of taste [1]; [3]): ca. 1 % SE; sugar-like tasting quality enhancement (human sense of taste [1]; [3]): significantly enhanced all three control 5% SE Stevia sweeteners to a much superior sugar-like tasting quality |
| CC1=C[C@@]23CC[C@H]4[C@@](C)(CCC[C@@]4(C)C(=O)O)[C@@H]2CC[C@]1(OC1OC(CO)C(O)C(OC2OC(CO)C(O)C(O)C2O)C1OC1OC(CO)C(O)C(O)C1O)C3 (some centres unmarked) [Compound 2] | ++, −SL, −B | DB (DB: Different pattern of bitterness;) | N(+), W | 35 µg/mL |  | sugar-like taste quality enhancement effect (human sense of taste [1]): similar, but smaller positive sugar-like taste quality enhancement effect |
| C[C@@]12CCC[C@@](C)(C(=O)OC3OC(CO)C(O)C(O)C3O)[C@H]1CC[C@@]13C[C@@](OC4OC(CO)C(O)C(OC5OC(CO)C(O)C(O)C5O)C4OC4OC(CO)C(O)C(O)C4O)(CC[C@H]12)[C@](C)(O)C3 (some centres unmarked) [Compound 3] | +, −B, −SL, OF | −B, OF | +, −SL, OF | 700 µg/mL |  | modulation of Stevia sweeteners (human sense of taste [1]; additive at 700 ppm, all Stevia sweeteners): positive modulation of all Stevia sweeteners; off-taste note (human sense of taste [1]; additive at 700 ppm, with Stevia sweeteners): weak chemical-like note; sugar-like taste quality enhancement effect (human sense of taste [1]): similar, but smaller positive sugar-like taste quality enhancement effect |
| CC1=C[C@@]23CC[C@H]4[C@@](C)(CCC[C@@]4(C)C(=O)OC4OC(CO)C(O)C(O)C4O)[C@@H]2CC[C@]1(OC1OC(CO)C(O)C(OC2OC(CO)C(O)C(O)C2O)C1OC1OC(CO)C(O)C(O)C1O)C3 (some centres unmarked) [Compound 4] | N (N: no difference in presence or absence of steviol glycoside additive;) | N (N: no difference in presence or absence of steviol glycoside additive;) | N (N: no difference in presence or absence of steviol glycoside additive;) | 25 µg/mL |  |  |
| C[C@@]12CCC[C@@](C)(C(=O)OC3OC(CO)C(O)C(O)C3O)[C@H]1CC[C@]13C=C(CO)[C@](OC4OC(CO)C(O)C(OC5OC(CO)C(O)C(O)C5O)C4OC4OC(CO)C(O)C(O)C4O)(CC[C@H]12)C3 (some centres unmarked) [Compound 5] | +, −B, W | N (N: no difference in presence or absence of steviol glycoside additive;) | N (N: no difference in presence or absence of steviol glycoside additive;) | 250 µg/mL |  | sugar-like taste quality (human sense of taste [1]; additive at 250 ppm, rebaudioside A): improve the sugar-like taste quality of rebaudioside A; sugar-like taste quality enhancement effect (human sense of taste [1]): similar, but smaller positive sugar-like taste quality enhancement effect |
| C=C1C[C@@]23CC[C@H]4[C@@](C)(CCC[C@@]4(C)C(=O)O[C@@H]4O[C@H](CO)[C@@H](O)[C@H](O)[C@H]4O)[C@@H]2CC[C@]1(O[C@@H]1O[C@H](CO)[C@@H](O)[C@H](O)[C@H]1O[C@@H]1O[C@@H](C)[C@H](O)[C@@H](O)[C@H]1O)C3 [Dulcoside A, dulcoside A] | N (N: no difference in presence or absence of steviol glycoside additive;) | N (N: no difference in presence or absence of steviol glycoside additive;) | N (N: no difference in presence or absence of steviol glycoside additive;) |  | 50 ppm |  |
| C[C@H](CC[C@@H](O[C@@H]1O[C@H](CO[C@@H]2O[C@H](CO)[C@@H](O)[C@H](O)[C@H]2O)[C@@H](O)[C@H](O)[C@H]1O[C@@H]1O[C@H](CO)[C@@H](O)[C@H](O)[C@H]1O)C(C)(C)O)[C@H]1CC[C@@]2(C)[C@@H]3CC=C4[C@@H](CC[C@H](O[C@@H]5O[C@H](CO[C@@H]6O[C@H](CO)[C@@H](O)[C@H](O)[C@H]6O)[C@@H](O)[C@H](O)[C@H]5O)C4(C)C)[C@]3(C)[C@H](O)C[C@]12C [Mogroside V, mogroside V] | N (N: no difference in presence or absence of steviol glycoside additive;) | N (N: no difference in presence or absence of steviol glycoside additive;) | ~+S (~+S: Slightly more detected sweetness intensity (~0.5% Sucrose Equivalence);) |  | 20 ppm | Sweetness recognition threshold Level (human sense of taste [2]; listed as mogroside V): about 15 ppm |
| C=C1C[C@@]23CC[C@H]4[C@@](C)(CCC[C@@]4(C)C(=O)O[C@@H]4O[C@H](CO)[C@@H](O)[C@H](O)[C@H]4O)[C@@H]2CC[C@]1(O[C@@H]1O[C@H](CO)[C@@H](O)[C@H](O[C@@H]2O[C@H](CO)[C@@H](O)[C@H](O)[C@H]2O)[C@H]1O[C@@H]1O[C@H](CO)[C@@H](O)[C@H](O)[C@H]1O)C3 [Rebaudioside A, rebaudioside A] |  | N (N: no difference in presence or absence of steviol glycoside additive;) | N (N: no difference in presence or absence of steviol glycoside additive;) |  | 12.6 ppm | Sweetness recognition threshold Level (human sense of taste [2]; listed as rebaudioside A): about 12.6 ppm |
| C=C1C[C@@]23CC[C@H]4[C@@](C)(CCC[C@@]4(C)C(=O)O[C@@H]4O[C@H](CO)[C@@H](O)[C@H](O)[C@H]4O[C@@H]4O[C@H](CO)[C@@H](O)[C@H](O)[C@H]4O)[C@@H]2CC[C@]1(O[C@@H]1O[C@H](CO)[C@@H](O)[C@H](O[C@@H]2O[C@H](CO)[C@@H](O)[C@H](O)[C@H]2O)[C@H]1O[C@@H]1O[C@H](CO)[C@@H](O)[C@H](O)[C@H]1O)C3 [Rebaudioside D, rebaudioside D] | N (N: no difference in presence or absence of steviol glycoside additive;) | N (N: no difference in presence or absence of steviol glycoside additive;) |  |  | 25 ppm | Sweetness recognition threshold Level (human sense of taste [2]; listed as rebaudioside D): about 25 ppm |
| C=C1C[C@@]23CC[C@H]4[C@@](C)(CCC[C@@]4(C)C(=O)O[C@@H]4O[C@H](CO)[C@@H](O)[C@H](O)[C@H]4O)[C@@H]2CC[C@]1(O[C@@H]1O[C@H](CO)[C@@H](O)[C@H](O)[C@H]1O)C3 [Rubusoside, rubusoside] | N(+) (N(+): same as “N” but slightly more;) | N (N: no difference in presence or absence of steviol glycoside additive;) | N (N: no difference in presence or absence of steviol glycoside additive;) | 50 µg/mL |  |  |
| C=C1C[C@@]23CC[C@H]4[C@@](C)(CCC[C@@]4(C)C(=O)OC4OC(C(=O)O)C(O)C(O)C4O)[C@@H]2CC[C@]1(O)C3 (some centres unmarked) [Steviol glucuronide, steviol glucoronide] | N (N: no difference in presence or absence of steviol glycoside additive;) | −B | N (N: no difference in presence or absence of steviol glycoside additive;) | 85 µg/mL |  | bitterness (human sense of taste [1]; additive at 85 ppm, 5% SE JSS): less bitterness |
| C=C1C[C@@]23CC[C@H]4[C@@](C)(CCC[C@@]4(C)C(=O)O)[C@@H]2CC[C@]1(O[C@@H]1O[C@H](CO)[C@@H](O)[C@H](O)[C@H]1O[C@@H]1O[C@H](CO)[C@@H](O)[C@H](O)[C@H]1O)C3 [Steviolbioside, steviolbioside] | N (N: no difference in presence or absence of steviol glycoside additive;) | N (N: no difference in presence or absence of steviol glycoside additive;) | N (N: no difference in presence or absence of steviol glycoside additive;) |  | 50 ppm |  |
